Experimental data reported in US20100316609A1, “Conditionally Replicating Viruses for Cancer Therapy” (priority 2006, published 2010).

What was measured:
human lung fibroblasts = assay: HIV-1 RT based cellular dNTP assay; type: cell-based
Source text: A ^32P labeled 18-mer annealed to a 19-mer template was extended by HIV-1 RT with known amounts of TTP. Percent of the primer extension with each dNTP amount was plotted (B).
A highly sensitive dNTP assay capable of monitoring dNTP levels in primary cells has been described (Diamond et al., J. Biol. Chem. 279:51545-53 2004). It has been difficult to determine dNTP levels in terminally differentiated primary cells due to the lack of highly sensitive dNTP assays. […] This assay used a ^32P-labeled 18-mer primer annealed to a 19-mer template, allowing incorporation of one of four dNTPs, generating 19-mer products (FIG. 2A). Indeed, this assay is ˜250 times more sensitive than the HPLC based assay. With this assay, dNTP concentrations in primary human macrophages, CD4+ T cells, and human fibroblasts were determined (Table 3). This assay also allowed monitoring of fluctuations of cellular dNTP contents, in different cell types, or under different phases of the cell cycle or culture conditions. Primary cells such as human primary lung fibroblast cells (HFL culture with 10% serum) have 5-10 lower dNTP content than tumor cells such as PANC1 cells (Table 4). Treatment with deoxynucleoside (dNs) enhanced cellular dNTP content in human lung fibroblasts (cultured with 10% serum) by 80 fold (Table 4).

N2A neuroblastoma cells = assay: VPA effect on Ad.CMV-LacZ gene expression in vitro; type: cell-based
Experimental: FIG. 5A is a graph showing N2A cells transduced by Ad.CMV-LacZ, and then exposed to varying concentrations of VPA (as indicated). Twenty-four hours later, LacZ expression was analyzed. FIG. 5B is a graph showing N2A cells cultured on poly-D-lysine coated 12-well plates in NB/B27 medium, and transduced with Ad.CMV-LacZ at a multiplicity of infection (MOI) of 10. Two hours thereafter, the culture medium was replaced with medium containing 1 mM VPA or vehicle (control). The medium was changed every 24-hours thereafter, and cell aliquots were harvested at the indicated time points (1, 3, 5, 7, 10 and 12 days post infection). LacZ expression was then measured in the lysates.
VPA enhanced virally-vectored gene expression, using a panel of gene delivery platforms that include recombinant, replication-defective type 5 adenovirus vectors. […] Similar effects were also observed in several primary cells transduced by Ad-CMV-LacZ (Fan, et al., J. Virol. Methods 125:23-33 (2005)).

BALB/c mice = assay: VPA effect on Ad-CMV-Luc gene expression in vivo; conditions: Ad-CMV-Luc intramuscular, VPA six days, biophotonic imaging
Experimental: In FIG. 6A luciferase-encoding adenovirus vector (Ad.CMV-Luc) was inoculated into the thigh muscle of BALB/c mice. These animals (3/group) were then treated with either VPA or with vehicle alone for six days, by twice-daily i.p. injection. Representative images obtained with the IVIS CCD camera at day 2 and 6 post Ad-infection are presented. In FIG. 6B the levels of adenovirally vectored luciferase gene expression in the mice shown in panel A were quantitated at day 2 and 6 post infection using the Living Image® 2.20.1 software (Xenogen, Alameda, Calif.).
[…] of a luciferase-expressing adenovirus vector (Ad-CMV-Luc) was inoculated into BALB/c mice, via an intramuscular route. These animals were then treated with either VPA or with vehicle alone for six days, and the expression of luciferase was analyzed over time using biophotonic imaging.

deoxynucleosides [dNs]
enhancement of cellular dNTP content (human lung fibroblasts; human lung fibroblasts cultured with 10% serum): 80 fold
[dNTP] (human lung fibroblasts; lung fibroblasts (+dN)): 20~90 μM
[dNTP] relative to untreated lung fibroblasts (1x) (human lung fibroblasts; lung fibroblasts (+dN)): ~80 x

CCCC(CCC)C(=O)O [VPA, Valproic acid]
reporter gene (LacZ) expression (N2A neuroblastoma cells; Ad-CMV-LacZ transduced N2A cells, varying VPA, FIG. 5A): dose-dependent increase
duration of increased expression of the delivered gene post VPA-treatment (N2A neuroblastoma cells; VPA 1 mM, FIG. 5B): more than 12 days
expression of luciferase compared to untreated mice (BALB/c mice): increased expression of luciferase
